“Also recorded” adds a separate entry of the source.
Legend:
[1] = Same clinical trial: fasting serum lipids (cholesterol, LDL, Apo-B, FFA); type: in vivo, human
Experimental: Changes in levels of triglycerides, total cholesterol, high-density lipoproteins (HDL), low-density lipoproteins (LDL), very-low-density lipoproteins (VLDL), apolipoprotein B (Apo-B), and free fatty acids (FFA).
(§1) This multicenter, double-blind, parallel-group, placebo-controlled, randomized, fixed-dose clinical study was designed to evaluate 1200 mg/day D-chiro-inositol versus placebo in 270 obese patients with type 2 diabetes mellitus who had been receiving sulfonylureas for at least 3 months without reaching their target or with suboptimal response.
(§2) The study involved 5 scheduled visits. The first visit was the screening visit, followed by a baseline visit up to 2 weeks later. Patients were randomized at the baseline visit, half to 1200 mg/day D-chiro-inositol and half to placebo, and subsequently began 13 weeks of treatment with blinded study medication. There were 3 visits for safety and efficacy assessments, at 4, 8, and 13 weeks after beginning treatment. The 13-week visit was the final visit. Patients arrived at the investigational site in a fasted state for all visits. Assessments were to be done at the same time of day at each visit by the same responsible personnel. Medication was taken once a day at the same time of morning, except on visit days, on which the dose was delayed until just after fasting blood samples had been collected.
(§3) Biomarkers: A meal tolerance test (MTT) was performed at baseline (Visit 2) and the final visit (Visit 5). In addition, blood was drawn at every visit for assessment of fasting glucose and insulin, HbA1c, C-peptide, fructosamine, FFA, triglycerides, total cholesterol, HDL, VLDL, LDL, and Apo-B levels.
(§4) Secondary Efficacy Variable (s) and Analyses. Since all secondary efficacy parameters were continuous, they were analyzed in the same manner as described above for the primary efficacy parameter, with treatment group and baseline values for the relevant parameter used as predictors. These secondary efficacy parameters included:
Total cholesterol, triglycerides, HDL, LDL, VLDL, Apo-B, and FFA levels;

[2] = Randomized placebo-controlled clinical trial of D-chiro-inositol with sulfonylureas: glycemic markers (HbA1c, fructosamine, fasting glucose); type: in vivo, human; details: for Difference in HbA1c change between D-chiro-inositol and placebo: baseline to endpoint
Experimental: The objective of this study was to assess the efficacy and safety of D-chiro-inositol when administered as a single oral dose of 1200 mg/day compared to placebo, each in combination with sulfonylureas, for 3 months. Patients were required to have been on sulfonylureas for 3 months prior to study entry without reaching their target dose or with a suboptimal response.
as §1, §2
Patients receiving D-chiro-inositol received four 300 mg capsules once daily for a total daily dose of 1200 mg; placebo patients took 4 placebo capsules once daily. Doses were taken orally, generally in the mornings. Patients were instructed to take their dose in the morning at the same time each day, except on visit days. On visit days, dosing was to be done at the clinic. No instructions were given regarding when to take medication in relation to meals on non-visit days.
as §3
Primary Efficacy Variable(s) and Analyses. The primary analysis was based on the change from baseline to endpoint in HbA1c level using the modified ITT and evaluable study populations. The analysis was done using an analysis of covariance (ANCOVA) model with treatment group and the baseline HbA1c value as predictors.
Secondary Efficacy Variable (s) and Analyses. Since all secondary efficacy parameters were continuous, they were analyzed in the same manner as described above for the primary efficacy parameter, with treatment group and baseline values for the relevant parameter used as predictors.

[3] = Subgroup analysis of the clinical trial: lipid lowering drug / D-chiro-inositol effects on LDL cholesterol; type: in vivo, human; details: type 2 diabetic patients on sulfonylurea, with or without lipid lowering medication
Experimental: Due to the observation of lipid lowering effects seen in the DCI group, the clinical trial described in EXAMPLE 1 was further analyzed for synergistic interactions between D-chiro-inositol and lipid lowering medications. Certain patients within the trial were treated according to standard of care with HMC-CoA inhibitors (LIPITOR®, LESCOL®, ZOCOR®, MEVACOR®, PRAVACHOL®), gemfibrozil, or a combination of HMC-CoA and gemfibrozil. No inclusion or exclusion criteria were established for the efficacy of the lipid lowering drug efficacy in the patient population. As stated supra, these patients were being sub optimally treated with a sulfonylurea prior to beginning the clinical trial. The patients could not change their lipid lowering dose and/or regimen during the length of the study.

[4] = Same clinical trial: insulin during meal tolerance test (MTT); type: in vivo, human
Experimental: Changes in area-under-the-curve (AUC) and 120-minute insulin and glucose levels during the mcal tolerance test (MTT).
as §1, §2, §3, §4
AUC (and 120-minute) insulin and glucose levels during the MTT;

[5] = streptozotocin-treated rats, obese Zucker rats, or normal rats given a glucose load; cited from earlier work
[6] = oral or intravenous route; cited from earlier work
[7] = evaluable patients with FPG ≦ 180 mg/dL
[8] = evaluable patients, 1200 mg/day plus sulfonylurea
[9] = patients with FPG ≦ 180 mg/dL, 1200 mg/day oral plus sulfonylurea
[10] = MTT, evaluable patients with FPG ≦ 180 mg/dL
[11] = MTT, evaluable patients, 1200 mg/day plus sulfonylurea

## OC1C(O)C(O)C(O)C(O)C1O [D-chiro-inositol]
[1]; [7]
  Apo-B, mean change: -4.00 mg/dL
  Cholesterol, mean change: -5.31 mg/dL
  LDL, mean change: -4.14 mg/dL
[1]; evaluable patients with FPG>180 mg/dL, p=0.036 vs placebo
  Decrease in LDL: 2.02 mg/dL
[1]; [8]
  Apo-B, mean change at endpoint: -1.26 mg/dL
  Cholesterol, mean change at endpoint: -2.74 mg/dL
  FFA, mean change at endpoint: −0.07 mEq/L
  LDL, mean change at endpoint: -2.95 mg/dL
[2]; [7]
  Fasting glucose, mean change: 12.67 mg/dL
  Fructosamine, mean change: -15.22 µmol/L
[2]; evaluable patients with FPG≦180 mg/dL, stated as a decrease
  Decrease in mean HbA1c level from baseline to endpoint: 0.53%
[2]; evaluable patients, LOCF at endpoint (13 weeks), 1200 mg/day oral plus sulfonylurea
  Mean change in HbA1c from baseline to endpoint, mean (SD): −0.16 (1.03) %
[2]; evaluable population
  Difference in HbA1c change between D-chiro-inositol and placebo: 0.36%
[2]; evaluable population, p=0.159 vs placebo
  Decrease in mean fructosamine levels: 5.32 µmol/L
[2]; evaluable population, stated as a decrease
  Decrease in mean HbA1c levels from baseline to endpoint: 0.16%
[2]; patients with FPG ≦ 180 mg/dL, LOCF at endpoint, 1200 mg/day oral plus sulfonylurea
  Mean change in HbA1c from baseline to endpoint, mean (SD): −0.53 (1.03) %
[2]; [9]
  Mean change in HbA1c from baseline to Week 4, mean (SD): −0.47 (0.68) %
  Mean change in HbA1c from baseline to Week 8, mean (SD): −0.57 (0.82) %
[2]; patients with FPG≦180 mg/dL
  Difference in HbA1c change between D-chiro-inositol and placebo: 0.80%
[3]
  Effect on LDL cholesterol (FIG. 3): significantly reduced the increase of LDL cholesterol
[4]; DCI+SU group
  Change in insulin AUC from baseline to endpoint, median of individual subjects (FIG. 2): slightly increased the insulin AUC
[4]; [10]
  120-min. insulin, mean change: 5.09 μU/mL
  AUC insulin, mean change: 1070.8 μU/mL·hr
[4]; [11]
  120-min. insulin, mean change at endpoint: 3.50 μU/mL
  AUC insulin, mean change at endpoint: 484.4 μU/mL·hr
[4]; subjects with fasting blood glucose ≦180 mg/dl, DCI+SU, 13 weeks, listed as DCI
  Insulin response to meal tolerance test over the treatment period (FIGS. 1A, 1B): maintained this response after the 13 week course of treatment; also recorded: maintains a constant insulin response over the testing period
[5]
  Glycemic control: significantly improved glyceimic control
[6]
  Disappearance rate of plasma glucose and insulin: significantly increased the disappearance rate of both plasma glucose and insulin

Reference: patent publication US6486127B1, “Compositions comprising D-chiro inositol and lipid lowering compounds and methods of treatment thereof” (Insmed, Incorporated, priority 2001, dated 2002)
